Laboratory results as given in PubChem BioAssay AID1919009 (Molecular Pharmacology Branch, DTP, NCI, 2023).

Test system: K24384-001-R-PDC complex spheroid growth
Assay: Anticancer human tumor K24384-001-R-PDC patient-derived pancreatic adenocarcinoma cell line growth inhibition [AhR]
Settings: for IC50: curve of first compound; for viability, T/C: stronger effect = lower value
In short: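 Agents were dosed in half-log steps down from roughly clinical Cmax, or from 10 microM where Cmax was unknown, alone and with AhR antagonists. Read-out: percent test/control growth of tumor spheroids containing HUVEC and MSC stromal cells.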

[1] = second compound 0.1 µM, first compound 0.0316 µM
[2] = second compound 0.1 µM, first compound 0.1 µM
[3] = second compound 0.1 µM, first compound 0.316 µM
[4] = second compound 0.1 µM, first compound 1 µM
[5] = second compound 0.1 µM, first compound 3.16 µM
[6] = second compound 0.1 µM, first compound 10 µM
[7] = second compound 0.316 µM, first compound 0.0316 µM
[8] = second compound 0.316 µM, first compound 0.1 µM
[9] = second compound 0.316 µM, first compound 0.316 µM
[10] = second compound 0.316 µM, first compound 1 µM
[11] = second compound 0.316 µM, first compound 3.16 µM
[12] = second compound 0.316 µM, first compound 10 µM
[13] = second compound 1 µM, first compound 0.0316 µM
[14] = second compound 1 µM, first compound 0.1 µM
[15] = second compound 1 µM, first compound 0.316 µM
[16] = second compound 1 µM, first compound 1 µM
[17] = second compound 1 µM, first compound 3.16 µM
[18] = second compound 1 µM, first compound 10 µM
[19] = second compound 3.16 µM, first compound 0.0316 µM
[20] = second compound 3.16 µM, first compound 0.1 µM
[21] = second compound 3.16 µM, first compound 0.316 µM
[22] = second compound 3.16 µM, first compound 1 µM
[23] = second compound 3.16 µM, first compound 3.16 µM
[24] = second compound 3.16 µM, first compound 10 µM
[25] = second compound 10 µM, first compound 0.0316 µM
[26] = second compound 10 µM, first compound 0.1 µM
[27] = second compound 10 µM, first compound 0.316 µM
[28] = second compound 10 µM, first compound 1 µM
[29] = second compound 10 µM, first compound 3.16 µM
[30] = second compound 10 µM, first compound 10 µM
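For viability, T/C in this document: percent of DMSO vehicle-treated spheroid viability set as 100%.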

SMILES | IC50 (second compound 0.1 µM) [µM] | IC50 (second compound 0.316 µM) [µM] | IC50 (second compound 1 µM) [µM] | IC50 (second compound 3.16 µM) [µM] | IC50 (second compound 10 µM) [µM] | viability, T/C [1] [%] | viability, T/C [2] [%] | viability, T/C [3] [%] | viability, T/C [4] [%] | viability, T/C [5] [%] | viability, T/C [6] [%] | viability, T/C [7] [%] | viability, T/C [8] [%] | viability, T/C [9] [%] | viability, T/C [10] [%] | viability, T/C [11] [%] | viability, T/C [12] [%] | viability, T/C [13] [%] | viability, T/C [14] [%] | viability, T/C [15] [%] | also measured
Nc1ccccc1NC(=O)c1ccc(CNC(=O)OCc2cccnc2)cc1 + Cc1cncc(-c2nc(NCCc3c[nH]c4ccccc34)c3ncn(C(C)C)c3n2)c1 | 1.74 | 1.1 | 1.5 | 0.951 | < 0.0316 | 90 | 86.7 | 79.6 | 69.3 | 30.3 | 6.17 | 111 | 108 | 77.7 | 48.3 | 31 | 3.5 | 111 | 99.8 | 87 | viability, T/C [16]: 56.6%; viability, T/C [17]: 33.6%; viability, T/C [18]: 2.82%; viability, T/C [19]: 77.6%; viability, T/C [20]: 93.2%; viability, T/C [21]: 61.9%; viability, T/C [22]: 43%; viability, T/C [23]: 33.1%; viability, T/C [24]: 1.51%; viability, T/C [25]: 15.2%; viability, T/C [26]: 10.7%; viability, T/C [27]: 7.68%; viability, T/C [28]: 5.34%; viability, T/C [29]: 4.19%; viability, T/C [30]: 0.39%
O=C(C=Cc1cccc(S(=O)(=O)Nc2ccccc2)c1)NO + Cc1cncc(-c2nc(NCCc3c[nH]c4ccccc34)c3ncn(C(C)C)c3n2)c1 | 1.84 | 2.11 | 2.35 | 2.32 | < 0.0316 | 107 | 120 | 108 | 74.5 | 28.2 | 4.88 | 139 | 138 | 135 | 87.9 | 30.3 | 4.55 | 129 | 141 | 145 | viability, T/C [16]: 85.6%; viability, T/C [17]: 41.1%; viability, T/C [18]: 5.39%; viability, T/C [19]: 118%; viability, T/C [20]: 118%; viability, T/C [21]: 111%; viability, T/C [22]: 75.2%; viability, T/C [23]: 41.9%; viability, T/C [24]: 6.54%; viability, T/C [25]: 28.9%; viability, T/C [26]: 20.4%; viability, T/C [27]: 17.7%; viability, T/C [28]: 9.39%; viability, T/C [29]: 10.3%; viability, T/C [30]: 2.79%
O=C(c1cc(Cc2n[nH]c(=O)c3ccccc23)ccc1F)N1CCN(C(=O)C2CC2)CC1 + Cc1cncc(-c2nc(NCCc3c[nH]c4ccccc34)c3ncn(C(C)C)c3n2)c1 | > 10 | > 10 | > 10 | > 10 | < 0.0316 | 128 | 135 | 140 | 96.3 | 78.5 | 82.5 | 155 | 157 | 143 | 117 | 106 | 90.5 | 137 | 132 | 142 | viability, T/C [16]: 98.5%; viability, T/C [17]: 128%; viability, T/C [18]: 114%; viability, T/C [19]: 106%; viability, T/C [20]: 119%; viability, T/C [21]: 135%; viability, T/C [22]: 119%; viability, T/C [23]: 119%; viability, T/C [24]: 111%; viability, T/C [25]: 17.7%; viability, T/C [26]: 14%; viability, T/C [27]: 13.2%; viability, T/C [28]: 13.9%; viability, T/C [29]: 10.4%; viability, T/C [30]: 8.74%
